# Reference: patent US8455240B2, “Use of thermophilic sulphate-reducing archaea for the implementation of a process for the degradation of hydrocarbons” (Institut de Recherche pour le Development (I.R.D.), priority 2005, dated 2013)
# Where “and” joins values, the source holds several entries; their conditions need not be identical. Identical values can stand only once. Marks after values point to notes of the source that are not given here.
# Experiments:
# [1] = system: Archaeoglobus fulgidus DSM 4304; assay: Monitoring of thiosulphate during the degradation of fatty acids by A. fulgidus; assay type: cell-based; conditions: E1/E2 replicates; for thiosulphate, time 0: time 0 (Jul. 4, 2005), butyrate, valerate 5 mM, others 2 mM
# Method: (§1) The thiosulphate and sulphate assays are carried out by ion chromatography.
# (§2) The analyses are carried out with a chromatograph (Compact IC 761, Metrohm) equipped with: • A […] ion-exchange column (Metrosep A SUPP 1-250 (6.1005.300)), size 4.6*250 mm; • The eluent used is Na2CO3 at a concentration of 3 mmol/l, at a flow rate of 1 to 2.5 ml/min; ((→the flow rate varies during the analysis)) • A sample processor (Metrohm 838); • A conductimeter; • A computer where the results are recorded, integrated and analyzed by software (761 Compact IC, Metrohm). III.3.2. Operating Method
# (§3) The operating conditions are such that the temperature is 20° C. and the pressure is 5 MPa. The samples to be analyzed are filtered. The injection volume is 20 μl. The detection is of conductimetric electrochemical type with chemical suppression allowing elution gradients.
# (§4) Monitoring of thiosulphate during the degradation of fatty acids by A. fulgidus and by L-3
# strain L-3 [2] = assay: Monitoring of thiosulphate during the degradation of fatty acids by L-3; assay type: cell-based, Archaeoglobus fulgidus CNCM I-3465 (strain L-3); conditions: E1/E2 replicates; for thiosulphate, time 0: time 0 (Feb. 5, 2005)
# Method: as §1, §2, §3, §4
# [3] = system: Archaeoglobus fulgidus (collection strain); assay: Quantitative study of the degradation of hydrocarbons (DBT, HMN), collection strain; assay type: cell-based
# Method: Experiments were carried out in order to establish the stoichiometric equation of the degradation of hydrocarbons in the case of the collection strain only. Thus, the hydrocarbon concentrations were assayed at the initial and final time, like the thiosulphate concentrations. Moreover, the increase in the biomass was followed by the increase in the microbial population based on the most probable number method (MPN).
# In order to be able to quantify the hydrocarbons with precision, the thick rubber stoppers were covered with a Teflon film, an inert substance which avoids any loss of the hydrocarbon by absorption or adsorption.
# The hydrocarbons were added at a rate of: • for the DBT: 10 mg of DBT dissolved in 0.5 ml of HMN, 0.5 ml of this solution is added to the tests; • for the HMN: 6 μl of HMN/10 ml of culture medium.
# The tests prepared are inoculated with the preceding subculture.
# strain L-3 [4] = assay: Subculture on hydrocarbons, strain L-3 (sulphide production); assay type: cell-based, Archaeoglobus fulgidus CNCM I-3465 (strain L-3)
# Method: (§5) Experimentally, 4 ml of Cord-Ruwish reagent comprising 50 mmol/l of HCl and 5 mmol/l of CuSO4 are added to 0.1 ml of sample. Copper sulphate (CuSO4) by reacting with hydrogen sulphide (H2S), forms a copper sulphide precipitate (CuS) after the reaction: CuSO4+H2S→CuS+H2SO4
# (§6) According to this method, the CuS is assayed by spectrophotometry at 480 nm. The readings are carried out against a blank constituted by 4 ml of Cord-Ruwish reagent.
# (§7) A subculture was carried out starting from the preceding experiment on naphthalene, DBT solubilized as previously in HMN, and on HMN alone, for the two strains studied.
# (§8) For this subculture, apart from the tests containing the hydrocarbon (DBT, naphthalene (Naph), […]), and seeded with the previously chosen inoculum, abiotic controls (negative controls) containing the substrate (hydrocarbon) but not inoculated were produced for the purpose of quantifying the sulphide production which could be due to chemical reactions between the different constituents of the medium. In these controls there was no development in the concentration of sulphide over a period of 20 days (Table 4).
# A. fulgidus [5] = assay: Complementary experiment: sulphate as electron acceptor instead of thiosulphate; assay type: cell-based, Archaeoglobus fulgidus
# Method: A first experiment was carried out with A. fulgidus for the purpose of studying the effect of sulphate as an electron acceptor instead of the thiosulphate used previously. […] This explains that at the bottom of the oceans where sulphate is abundant relative to thiosulphate which is in the minority, the phenomenon of DBT or HMN degradation cannot occur spontaneously.
# A. fulgidus [6] = assay: Subculture on hydrocarbons, A. fulgidus (sulphide production); assay type: cell-based, Archaeoglobus fulgidus; conditions: for ΔS tf-ti: final minus initial sulphide
# Method: as §5, §6, §7, §8
# Archaeoglobus fulgidus = assay: Screening for hydrocarbon degradation, A. fulgidus (sulphide production, Cord-Ruwish); assay type: cell-based
# Method: as §5, §6
# (§9) The study of the hydrocarbon degradation abilities is an experiment which requires a particularly long incubation. Thus, it was carried out in Bellco tubes sealed with thick rubber stoppers.
# (§10) For these experiments, tubes containing 10 ml of culture medium without substrate, are 10% inoculated, then the hydrocarbon is introduced by injection through the stopper.
# (§11) The hydrocarbons chosen are model molecules belonging to the different classes of hydrocarbons, namely: • hexadecane (CH3(CH2)14CH3, C16), a saturated linear aliphatic hydrocarbon; • hexadecene (CH3(CH2)13CHCH2, C16:1), an unsaturated linear aliphatic hydrocarbon of biogenic origin; • dibenzothiophene (DBT, C12H8S), a sulphur-containing aromatic hydrocarbon.
# (§12) The aliphatic hydrocarbons (C16; C16:1) are added to the corresponding tubes, at a rate of 0.04 ml/10 ml of culture medium. The aromatic hydrocarbons (DBT) are solubilized in 2,2,4,4,6,8,8-heptamethylnonane (HMN, C16H34) at a rate of 20 mg/ml of HMN, and 0.75 ml of this solution is injected into 10 ml of culture medium.
# (§13) 3 tubes were produced for each test and control. The growth of the strains was monitored indirectly by the production of sulphide.
# as §7
# strain L-3 [7] = assay: Screening for hydrocarbon degradation, strain L-3 (sulphide production, Cord-Ruwish); assay type: cell-based, Archaeoglobus fulgidus CNCM I-3465 (strain L-3); conditions: for Count / OD 580 / H2S: choice of the inoculum for the subculture; for H2S: tubes of the screening; for ΔS tf-ti: final minus initial sulphide
# Method: as §5, §6, §9, §10, §11, §12, §13, §7
# [8] = choice of the inoculum for the subculture
smiles,measurement,setting,value
CCCCCCCCCCCCCCCCCC(=O)O [stearate],"thiosulphate, end of May 2005",[1]; listed as C18 fatty acid,10.55 mM and 7.05 mM
same,"thiosulphate, time 0",strain L-3 [2],14.64* mM
CCCCCCCCC(=O)O [nonanoate],"thiosulphate, end of May 2005",[1]; listed as C9 fatty acid,7.65 mM and 10.52 mM
CCCCC(=O)O [valerate],"thiosulphate, end of May 2005",[1]; listed as C5 fatty acid,11.86 mM and 9.39 mM
same,"thiosulphate, time 0",strain L-3 [2],13.95* mM
"c1ccc2c(c1)sc1ccccc12 [DBT, dibenzothiophene]",sulphide assay at the end of 75 days,[3],approximately 9.5 mM
same,sulphide production (OD 480) 0 d,strain L-3 [4],0.3 mM and 0.2 mM
same,sulphide production (OD 480) 8 d,strain L-3 [4],0.6 mM and 0.4 mM
same,sulphide production (OD 480) 22 d,strain L-3 [4],1.1 mM and 1 mM and 0.8 mM
same,sulphide production (OD 480) 45 d,strain L-3 [4]; 45 d,2 mM and 1.1 mM and 1 mM
same,microbial growth with sulphate as electron acceptor,A. fulgidus [5],no microbial growth
same,sulphide production (OD 480) 0 d,A. fulgidus [6]; 0 d,0.2 mM and 0.1 mM
same,sulphide production (OD 480) 8 d,A. fulgidus [6],1.3 mM and 1.1 mM and 1.2 mM
same,sulphide production (OD 480) 22 d,A. fulgidus [6]; 22 d,2.1 mM and 1.9 mM
same,ΔS tf-ti,A. fulgidus [6],3 mM and 3.1 mM and 3.2 mM
same,sulphide production (OD 480) 0 d,"Archaeoglobus fulgidus; 0 d, aromatics solubilized in HMN",0.4 mM and 0.3 mM and 0.5 mM
same,sulphide production (OD 480) 10 d,Archaeoglobus fulgidus,0.6 mM and 0.8 mM and 0.7 mM
same,sulphide production (OD 480) 45 d,Archaeoglobus fulgidus,1.1 mM and 1.3 mM
same,"sulphide value in the hydrocarbon screening stage (ΔS45d, Table 1)",Archaeoglobus fulgidus; 45 days,≤ 1 mM
same,sulphide production (OD 480) 60 d,Archaeoglobus fulgidus,1.1 mM and 1.7 mM and 1.5 mM
same,Count,Archaeoglobus fulgidus; [8],9.4*10^7 Cells/ml and 8.33*10^7 Cells/ml and 7.22*10^7 Cells/ml
same,OD 580,Archaeoglobus fulgidus; [8],0.9801 and 1.424 and 0.9189
same,sulphide production (OD 480) 45 d,strain L-3 [7],1 mM and 1.2 mM and 1.4 mM
same,sulphide production (OD 480) 60 d,strain L-3 [7]; 60 d,0.6 mM and 0.7 mM and 1.1 mM
same,sulphide production (OD 480) 70 d,strain L-3 [7],0.9 mM and 1.2 mM and 1.4 mM
same,Count,strain L-3 [7],8.17*10^7 Cells/ml and 6.55*10^7 Cells/ml
same,OD 580,strain L-3 [7],0.2284 and 0.3479
same,H2S,strain L-3 [7],0.9 mM and 1.2 mM
same,ΔS tf-ti,strain L-3 [7],0.8 mM and 1.2 mM and 1.5 mM
CCCC(=O)O [butyrate],"thiosulphate, end of May 2005",[1],9.29 mM
same,"thiosulphate, time 0",[1],12.51 mM
same,"thiosulphate, time 0",strain L-3 [2],15.45 mM
CCCCCCCC(=O)O [octanoate],"thiosulphate, end of May 2005",[1]; listed as C8 fatty acid,8.2 mM and 9.27 mM
same,"thiosulphate, end of May 2005","strain L-3 [2]; end of May 2005, listed as C8 fatty acid",9.56 and mM and 9.33 mM
CCCCCCCCCCCCCCCC(=O)O [palmitate],"thiosulphate, end of May 2005",[1],9.12 mM
same,"thiosulphate, time 0",[1],11.54 mM
same,"thiosulphate, time 0",strain L-3 [2],15.52 mM
"CC(CC(C)(C)C)CC(C)(C)CC(C)(C)C (stereo not shown) [HMN, 2,2,4,4,6,8,8-heptamethylnonane]",sulphide assay at the end of 75 days,[3],approximately 6 mM
same,Sulphide (mM)(480 nM),"[3]; after 7 weeks of incubation, with yeast extract (EL)",1.3 mM
same,sulphide production (OD 480) 0 d,strain L-3 [4],0.3 mM and 0.2 mM
same,sulphide production (OD 480) 8 d,strain L-3 [4],0.6 mM and 0.5 mM and 0.4 mM
same,sulphide production (OD 480) 22 d,strain L-3 [4],1 mM and 0.9 mM and 0.6 mM
same,microbial growth with sulphate as electron acceptor,A. fulgidus [5],no microbial growth
same,"sulphide production during the subculture, on average",A. fulgidus [6],1.8 mM
same,sulphide production (OD 480) 8 d,A. fulgidus [6],0.6 mM and 1 mM and 0.7 mM
same,sulphide production (OD 480) 45 d,A. fulgidus [6]; 45 d,2 mM and 3.5 mM and 2.2 mM
same,ΔS tf-ti,A. fulgidus [6],1.4 mM and 2.5 mM and 1.5 mM
same,sulphide production (OD 480) 10 d,Archaeoglobus fulgidus,0.8 mM and 1 mM
same,sulphide production (OD 480) 45 d,Archaeoglobus fulgidus,0.8 mM and 1.1 mM
same,sulphide production (OD 480) 60 d,Archaeoglobus fulgidus,0.9 mM and 0.7 mM and 1.3 mM
same,sulphide production (OD 480) 70 d,Archaeoglobus fulgidus; 70 d,1.3 mM and 0.9 mM and 1.2 mM
same,H2S,"Archaeoglobus fulgidus; choice of the inoculum for the subculture, tubes of the screening",1.3 mM and 0.9 mM and 1.2 mM
same,sulphide production (OD 480) 45 d,strain L-3 [7],0.7 mM and 0.9 mM
same,sulphide production (OD 480) 70 d,strain L-3 [7],1 mM and 1.4 mM and 1.9 mM
same,Count,strain L-3 [7],6.08*10^7 Cells/ml
same,OD 580,strain L-3 [7],0.5921 and 0.6696
same,H2S,strain L-3 [7],1 mM and 1.4 mM and 2 mM
same,ΔS tf-ti,strain L-3 [7],1 mM and 1.4 mM and 2 mM
